# Reference: ChEMBL document CHEMBL3885881, “DrugMatrix”
# Organism: Rattus norvegicus
# Experiment: DrugMatrix - Regimen: Daily Repeat
# Type: toxicity, organism-based, Sprague-Dawley
# Design: regimen Daily Repeat, gender Male, age 6-8 weeks
# Details: in vivo, po, route oral GAVAGE, vehicle .5 % CMC; for BASOPHIL / EOSINOPHIL / ERYTHROCYTE COUNT / HEMATOCRIT / HEMOGLOBIN / LEUKOCYTE COUNT / LYMPHOCYTE / MEAN CORPUSCULAR HEMOGLOBIN / MEAN CORPUSCULAR HEMOGLOBIN CONCENTRATION / MEAN CORPUSCULAR VOLUME / MONOCYTE / NEUTROPHIL / PLATELET COUNT: tissue Blood; for ALANINE AMINOTRANSFERASE / ALBUMIN / ALKALINE PHOSPHATASE / ASPARTATE AMINOTRANSFERASE / BLOOD UREA NITROGEN / CHLORIDE / CHOLESTEROL / CREATINE PHOSPHOKINASE / CREATININE / GLUCOSE / PHOSPHORUS / POTASSIUM / SODIUM / TOTAL BILIRUBIN / TOTAL PROTEIN: tissue Plasma
# [1] = 0 mg/kg, 72 h, dose level Control, time 3 day
# [2] = 0 mg/kg, 120 h, dose level Control, time 5 day
# [3] = 25 mg/kg, 72 h, dose level Low, time 3 day
# [4] = 25 mg/kg, 120 h, dose level Low, time 5 day
compound,measurement,setting,value
C=C(CC)C(=O)c1ccc(OCC(=O)O)c(Cl)c1Cl [ETHACRYNIC ACID],BASOPHIL,[1],0%
same,EOSINOPHIL,[1],0%
same,ERYTHROCYTE COUNT,[1],6.19 x10E6/uL
same,HEMATOCRIT,[1],36.94%
same,HEMOGLOBIN,[1],14.58 G/DL
same,LEUKOCYTE COUNT,[1],11.54 x10E3/uL
same,LYMPHOCYTE,[1],84.8%
same,MEAN CORPUSCULAR HEMOGLOBIN,[1],23.58 pg
same,MEAN CORPUSCULAR HEMOGLOBIN CONCENTRATION,[1],39.44 G/DL
same,MEAN CORPUSCULAR VOLUME,[1],59.76 fL
same,MONOCYTE,[1],1.4%
same,NEUTROPHIL,[1],13.8%
same,PLATELET COUNT,[1],1068.8 x10E3/uL
same,ALANINE AMINOTRANSFERASE,[1],38.17 u/L
same,ALBUMIN,[1],3.88 G/DL
same,ALKALINE PHOSPHATASE,[1],391.33 u/L
same,ASPARTATE AMINOTRANSFERASE,[1],69.83 u/L
same,BLOOD UREA NITROGEN,[1],15 mg/dL
same,CHLORIDE,[1],104.17 MEQ/L
same,CHOLESTEROL,[1],72.17 mg/dL
same,CREATINE PHOSPHOKINASE,[1],174.33 u/L
same,CREATININE,[1],0.58 mg/dL
same,GLUCOSE,[1],192.67 mg/dL
same,PHOSPHORUS,[1],10.52 mg/dL
same,POTASSIUM,[1],6.8 MEQ/L
same,SODIUM,[1],149.67 MEQ/L
same,TOTAL BILIRUBIN,[1],0.78 mg/dL
same,TOTAL PROTEIN,[1],6.28 G/DL
same,BASOPHIL,[2],0%
same,EOSINOPHIL,[2],0.17%
same,ERYTHROCYTE COUNT,[2],6.72 x10E6/uL
same,HEMATOCRIT,[2],40.02%
same,HEMOGLOBIN,[2],15.83 G/DL
same,LEUKOCYTE COUNT,[2],9.5 x10E3/uL
same,LYMPHOCYTE,[2],87.17%
same,MEAN CORPUSCULAR HEMOGLOBIN,[2],23.57 pg
same,MEAN CORPUSCULAR HEMOGLOBIN CONCENTRATION,[2],39.62 G/DL
same,MEAN CORPUSCULAR VOLUME,[2],59.55 fL
same,MONOCYTE,[2],1.67%
same,NEUTROPHIL,[2],11%
same,PLATELET COUNT,[2],1053.67 x10E3/uL
same,ALANINE AMINOTRANSFERASE,[2],26.33 u/L
same,ALBUMIN,[2],4.02 G/DL
same,ALKALINE PHOSPHATASE,[2],316.67 u/L
same,ASPARTATE AMINOTRANSFERASE,[2],61.33 u/L
same,BLOOD UREA NITROGEN,[2],18.67 mg/dL
same,CHLORIDE,[2],108 MEQ/L
same,CHOLESTEROL,[2],65.17 mg/dL
same,CREATINE PHOSPHOKINASE,[2],161.17 u/L
same,CREATININE,[2],0.75 mg/dL
same,GLUCOSE,[2],177.33 mg/dL
same,PHOSPHORUS,[2],9.72 mg/dL
same,POTASSIUM,[2],6.18 MEQ/L
same,SODIUM,[2],150.5 MEQ/L
same,TOTAL BILIRUBIN,[2],0.68 mg/dL
same,TOTAL PROTEIN,[2],6.55 G/DL
same,BASOPHIL,[3],0%
same,EOSINOPHIL,[3],0%
same,ERYTHROCYTE COUNT,[3],5.63 x10E6/uL
same,HEMATOCRIT,[3],33.93%
same,HEMOGLOBIN,[3],13.5 G/DL
same,LEUKOCYTE COUNT,[3],12.83 x10E3/uL
same,LYMPHOCYTE,[3],81%
same,MEAN CORPUSCULAR HEMOGLOBIN,[3],23.97 pg
same,MEAN CORPUSCULAR HEMOGLOBIN CONCENTRATION,[3],39.8 G/DL
same,MEAN CORPUSCULAR VOLUME,[3],60.23 fL
same,MONOCYTE,[3],2.67%
same,NEUTROPHIL,[3],16.33%
same,PLATELET COUNT,[3],1220 x10E3/uL
same,ALANINE AMINOTRANSFERASE,[3],34.67 u/L
same,ALBUMIN,[3],3.8 G/DL
same,ALKALINE PHOSPHATASE,[3],289.67 u/L
same,ASPARTATE AMINOTRANSFERASE,[3],61.67 u/L
same,BLOOD UREA NITROGEN,[3],16.33 mg/dL
same,CHLORIDE,[3],102.67 MEQ/L
same,CHOLESTEROL,[3],78 mg/dL
same,CREATINE PHOSPHOKINASE,[3],150.67 u/L
same,CREATININE,[3],0.67 mg/dL
same,GLUCOSE,[3],178 mg/dL
same,PHOSPHORUS,[3],11.3 mg/dL
same,POTASSIUM,[3],6.67 MEQ/L
same,SODIUM,[3],148 MEQ/L
same,TOTAL BILIRUBIN,[3],0.5 mg/dL
same,TOTAL PROTEIN,[3],6.23 G/DL
same,BASOPHIL,[4],0%
same,EOSINOPHIL,[4],0%
same,ERYTHROCYTE COUNT,[4],6.67 x10E6/uL
same,HEMATOCRIT,[4],39.93%
same,HEMOGLOBIN,[4],15.7 G/DL
same,LEUKOCYTE COUNT,[4],13.37 x10E3/uL
same,LYMPHOCYTE,[4],91.33%
same,MEAN CORPUSCULAR HEMOGLOBIN,[4],23.6 pg
same,MEAN CORPUSCULAR HEMOGLOBIN CONCENTRATION,[4],39.37 G/DL
same,MEAN CORPUSCULAR VOLUME,[4],59.9 fL
same,MONOCYTE,[4],2.33%
same,NEUTROPHIL,[4],6.33%
same,PLATELET COUNT,[4],1183.33 x10E3/uL
same,ALANINE AMINOTRANSFERASE,[4],25 u/L
same,ALBUMIN,[4],4.03 G/DL
same,ALKALINE PHOSPHATASE,[4],323.33 u/L
same,ASPARTATE AMINOTRANSFERASE,[4],56.67 u/L
same,BLOOD UREA NITROGEN,[4],14.33 mg/dL
same,CHLORIDE,[4],104.33 MEQ/L
same,CHOLESTEROL,[4],77.33 mg/dL
same,CREATINE PHOSPHOKINASE,[4],160 u/L
same,CREATININE,[4],0.6 mg/dL
same,GLUCOSE,[4],169 mg/dL
same,PHOSPHORUS,[4],10.6 mg/dL
same,POTASSIUM,[4],6.23 MEQ/L
same,SODIUM,[4],151 MEQ/L
same,TOTAL BILIRUBIN,[4],0.6 mg/dL
same,TOTAL PROTEIN,[4],6.77 G/DL
